In PMC11990670, “Exploring the Volatility, Phase Transitions, and Solubility Properties of Five Halogenated Benzaldehydes” (Molecules, 2025):
Marks after values point to notes of the source that are not given here.

What was measured:
[1] = pH of the saturated aqueous solutions; format: physicochemical; conditions: saturated aqueous solution of the solubility experiment
Procedure: The concentration was measured by absorbances at 260 nm for 4-chlorobenzaldehyde, 263 nm for 4-bromobenzaldehyde and 2,4-dichlorobenzaldehyde, 297 nm for 2,6-dichlorobenzaldehyde, and 306 nm for 2,3-dichlorobenzaldehyde, using a Cary-60 UV–vis (Agilent) spectrophotometer. X-ray diffraction (XRD) and differential scanning calorimetry of residual solids were used to identify the eventual phase transformations. The purified samples of each compound studied were used for all experimental determinations, including the solubility measurements. After reaching the equilibrium, the residual solid was dried and analyzed using both DSC and XRD. The melting properties obtained from DSC were compared with those of the original purified sample, following the same procedure for the XRD analysis. […] As an example, the supporting information includes two thermograms and two XRD patterns for 2,4-dichlorobenzaldehyde (Figures S1 and S2). […] Equation (4) was derived from Equation (5), which is widely applicable to the solubility of solids.(4) ΔhydrGm°/kJ·mol^−1=9.17−5.71·log10(Scr/mol·m^−3)−ΔcrgGm°/kJ·mol^−1 (5) S=p^°/RTexpΔcrgGm°+ΔhydrGm°/−RT
An excess amount of each compound was added to a known volume of water in triplicate. […] After stirring, the solid phase was allowed to settle for 2 h. The pH of the saturated solutions was measured using a Mettler Toledo (Greifensee, Switzerland) FiveEasy F20 pH Meter calibrated with standard aqueous solutions (pH 7.00 and 4.01 or 10.1). Those solutions were then filtered through a 0.22 μm syringe hydrophilic filter (13 mm, PTFE, Labfil, Zhejiang, China) and diluted to the required concentration. The concentration of the compounds, expressed in molarity, was measured by absorbances using a Cary-60 UV–vis spectrophotometer (Agilent Technologies, Santa Clara, CA, USA) at 298.15 K (single cell Peltier accessory, ±0.15 K). The results reported in Table 6 are averaged from at least three replicates. Calibration was performed using solutions of known concentrations of each substance in water. These solutions were prepared by adding a precise mass of the substance and a specific volume of the solvent to a flask, then mixing until the substance was fully dissolved. The absorbance of these solutions was measured, and calibration curves were created.

[2] = Vapor pressures of crystalline and liquid phases, static method with capacitance diaphragm gauge; format: physicochemical
Text: A previously described and tested static apparatus was used to measure the vapor pressures of the condensed phases (both crystalline and liquid) of the five compounds studied. This installation employs MKS capacitance diaphragm absolute gauges, operating at self-regulated constant temperatures. Our lab is equipped with three pressure gauges. Gauge I, a Baratron 631A01TBEH (MKS instruments, Andover, MA, USA) (Tgauge = 423 K), measures pressures in the range of 0.5 to 1.3 × 10^2 Pa and operates within a temperature range of 253 to 413 K. Gauge II, the instrument used in this study, is a Baratron 631A11TBFP (MKS instruments, Andover, MA, USA) (Tgauge = 473 K), capable of measuring pressures from 0.5 to 1.3 × 10^3 Pa within a temperature range of 253 to 433 K and gauge III, a Baratron 631D02T8FP (MKS instruments, Andover, MA, USA) (Tgauge = 473 K), designed to measure pressures between 0.5 Pa and 2.6 × 10^2 Pa, also within a temperature range of 253 to 433 K. The temperatures of the samples were measured using a Pt100 platinum resistance thermometer, calibrated by comparison with a standard platinum resistance thermometer (SPRT: Tinsley Precision Instruments Ltd, London, England). To prevent vapor condensation, the tubing connecting the cell containing the condensed sample to the pressure gauge is maintained at a temperature higher than that of the sample but lower than that of the gauge. The uncertainty in temperature measurements is estimated to be u(T/K) = ±0.01, and the expanded uncertainties (0.95 confidence level, k = 2) in pressure measurements are given by the expression U(p/Pa) = 0.1 + 0.0050 (p/Pa) for the gauge used. Samples were thoroughly degassed before starting the vapor pressure measurements, ensuring consistent readings at specific temperatures and eliminating any residual volatile substances, including water.

Structure (SMILES): O=Cc1cccc(Cl)c1Cl [2,3-Dichlorobenzaldehyde]
- pH of the saturated solution [1]: 6.43
- vapor pressure p ([2]; crystalline phase, T = 284.21 K): 0.49 Pa
- vapor pressure p ([2]; crystalline phase, T = 286.16 K): 0.63 Pa
- vapor pressure p ([2]; crystalline phase, T = 288.13 K): 0.78 Pa
- vapor pressure p ([2]; crystalline phase, T = 290.09 K): 0.99 Pa
- vapor pressure p ([2]; crystalline phase, T = 292.06 K): 1.26 Pa
- vapor pressure p ([2]; crystalline phase, T = 294.04 K): 1.58 Pa
- vapor pressure p ([2]; crystalline phase, T = 296.22 K): 2.00 Pa
- vapor pressure p ([2]; crystalline phase, T = 298.17 K): 2.47 Pa
- vapor pressure p ([2]; crystalline phase, T = 299.97 K): 3.02 Pa
- vapor pressure p ([2]; crystalline phase, T = 302.18 K): 3.78 Pa
- vapor pressure p ([2]; crystalline phase, T = 303.89 K): 4.58 Pa
- vapor pressure p ([2]; crystalline phase, T = 305.78 K): 5.63 Pa
- vapor pressure p ([2]; crystalline phase, T = 308.08 K): 7.12 Pa
- vapor pressure p ([2]; crystalline phase, T = 309.86 K): 8.45 Pa
- vapor pressure p ([2]; crystalline phase, T = 312.03 K): 10.58 Pa
- vapor pressure p ([2]; crystalline phase, T = 313.92 K): 12.78 Pa
- vapor pressure p ([2]; crystalline phase, T = 315.60 K): 15.22 Pa
- vapor pressure p ([2]; crystalline phase, T = 317.96 K): 18.67 Pa
- vapor pressure p ([2]; crystalline phase, T = 319.59 K): 21.97 Pa
- vapor pressure p ([2]; crystalline phase, T = 321.86 K): 27.35 Pa
- vapor pressure p ([2]; crystalline phase, T = 323.56 K): 31.92 Pa
- vapor pressure p ([2]; crystalline phase, T = 325.70 K): 39.35 Pa
- vapor pressure p ([2]; crystalline phase, T = 327.48 K): 45.52 Pa
- vapor pressure p ([2]; crystalline phase, T = 329.63 K): 56.32 Pa
- vapor pressure p ([2]; crystalline phase, T = 331.62 K): 65.87 Pa
- vapor pressure p ([2]; liquid phase, T = 335.54 K): 91.33 Pa
- vapor pressure p ([2]; liquid phase, T = 337.55 K): 103.4 Pa
- vapor pressure p ([2]; liquid phase, T = 339.54 K): 117.4 Pa
- vapor pressure p ([2]; liquid phase, T = 341.49 K): 133.6 Pa
- vapor pressure p ([2]; liquid phase, T = 343.48 K): 150.6 Pa
- vapor pressure p ([2]; liquid phase, T = 345.45 K): 169.9 Pa
- vapor pressure p ([2]; liquid phase, T = 347.44 K): 189.1 Pa
- vapor pressure p ([2]; liquid phase, T = 349.41 K): 214.0 Pa
- vapor pressure p ([2]; liquid phase, T = 351.50 K): 240.6 Pa
- vapor pressure p ([2]; liquid phase, T = 353.48 K): 267.2 Pa
- vapor pressure p ([2]; liquid phase, T = 355.36 K): 297.6 Pa
- vapor pressure p ([2]; liquid phase, T = 357.43 K): 335.9 Pa
- vapor pressure p ([2]; liquid phase, T = 359.33 K): 371.6 Pa
- vapor pressure p ([2]; liquid phase, T = 361.39 K): 419.6 Pa
- vapor pressure p ([2]; liquid phase, T = 363.27 K): 461.9 Pa
- vapor pressure p ([2]; liquid phase, T = 365.34 K): 516.4 Pa
- vapor pressure p ([2]; liquid phase, T = 367.35 K): 569.4 Pa
- vapor pressure p ([2]; liquid phase, T = 369.27 K): 630.4 Pa
- vapor pressure p ([2]; liquid phase, T = 371.17 K): 695.2 Pa
- vapor pressure p ([2]; liquid phase, T = 373.23 K): 767.3 Pa
- vapor pressure p ([2]; liquid phase, T = 375.13 K): 843.4 Pa
- vapor pressure p ([2]; liquid phase, T = 377.17 K): 930.5 Pa
- vapor pressure p ([2]; liquid phase, T = 379.07 K): 1011 Pa
- vapor pressure p ([2]; liquid phase, T = 381.03 K): 1104 Pa
- vapor pressure p ([2]; supercooled liquid, T = 327.59 K): 54.84 ^d Pa
- vapor pressure p ([2]; supercooled liquid, T = 329.66 K): 62.05 ^d Pa
- vapor pressure p ([2]; supercooled liquid, T = 331.60 K): 71.02 ^d Pa
- vapor pressure p ([2]; supercooled liquid, T = 333.65 K): 80.84 ^d Pa

Structure (SMILES): O=Cc1ccc(Cl)cc1Cl [2,4-Dichlorobenzaldehyde]
- pH of the saturated solution [1]: 6.57
- vapor pressure p ([2]; crystalline phase, T = 285.78 K): 0.64 Pa
- vapor pressure p ([2]; crystalline phase, T = 287.68 K): 0.80 Pa
- vapor pressure p ([2]; crystalline phase, T = 289.73 K): 1.02 Pa
- vapor pressure p ([2]; crystalline phase, T = 291.36 K): 1.23 Pa
- vapor pressure p ([2]; crystalline phase, T = 293.15 K): 1.50 Pa
- vapor pressure p ([2]; crystalline phase, T = 294.83 K): 1.81 Pa
- vapor pressure p ([2]; crystalline phase, T = 296.85 K): 2.29 Pa
- vapor pressure p ([2]; crystalline phase, T = 298.81 K): 2.85 Pa
- vapor pressure p ([2]; crystalline phase, T = 301.19 K): 3.67 Pa
- vapor pressure p ([2]; crystalline phase, T = 303.16 K): 4.55 Pa
- vapor pressure p ([2]; crystalline phase, T = 305.23 K): 5.65 Pa
- vapor pressure p ([2]; crystalline phase, T = 307.12 K): 6.86 Pa
- vapor pressure p ([2]; crystalline phase, T = 308.88 K): 8.29 Pa
- vapor pressure p ([2]; crystalline phase, T = 310.95 K): 10.12 Pa
- vapor pressure p ([2]; crystalline phase, T = 313.23 K): 12.78 Pa
- vapor pressure p ([2]; crystalline phase, T = 315.25 K): 15.58 Pa
- vapor pressure p ([2]; crystalline phase, T = 317.80 K): 20.05 Pa
- vapor pressure p ([2]; crystalline phase, T = 320.56 K): 26.18 Pa
- vapor pressure p ([2]; crystalline phase, T = 322.93 K): 32.84 Pa
- vapor pressure p ([2]; crystalline phase, T = 325.24 K): 40.77 Pa
- vapor pressure p ([2]; crystalline phase, T = 327.66 K): 50.25 Pa
- vapor pressure p ([2]; crystalline phase, T = 329.75 K): 60.90 Pa
- vapor pressure p ([2]; crystalline phase, T = 331.73 K): 72.78 Pa
- vapor pressure p ([2]; crystalline phase, T = 333.66 K): 85.89 Pa
- vapor pressure p ([2]; crystalline phase, T = 335.72 K): 102.0 Pa
- vapor pressure p ([2]; crystalline phase, T = 337.64 K): 119.1 Pa
- vapor pressure p ([2]; crystalline phase, T = 339.73 K): 141.9 Pa
- vapor pressure p ([2]; crystalline phase, T = 341.66 K): 166.2 Pa
- vapor pressure p ([2]; liquid phase, T = 344.36 K): 207.6 Pa
- vapor pressure p ([2]; liquid phase, T = 346.33 K): 233.6 Pa
- vapor pressure p ([2]; liquid phase, T = 348.33 K): 261.6 Pa
- vapor pressure p ([2]; liquid phase, T = 349.66 K): 282.0 Pa
- vapor pressure p ([2]; liquid phase, T = 351.41 K): 310.8 Pa
- vapor pressure p ([2]; liquid phase, T = 353.17 K): 342.8 Pa
- vapor pressure p ([2]; liquid phase, T = 355.39 K): 390.3 Pa
- vapor pressure p ([2]; liquid phase, T = 357.59 K): 437.4 Pa
- vapor pressure p ([2]; liquid phase, T = 359.46 K): 479.4 Pa
- vapor pressure p ([2]; liquid phase, T = 361.34 K): 533.0 Pa
- vapor pressure p ([2]; liquid phase, T = 363.54 K): 603.2 Pa
- vapor pressure p ([2]; liquid phase, T = 365.63 K): 668.2 Pa
- vapor pressure p ([2]; liquid phase, T = 367.44 K): 733.6 Pa
- vapor pressure p ([2]; liquid phase, T = 369.34 K): 810.6 Pa
- vapor pressure p ([2]; liquid phase, T = 371.29 K): 885.4 Pa
- vapor pressure p ([2]; liquid phase, T = 373.62 K): 998.4 Pa
- vapor pressure p ([2]; liquid phase, T = 375.74 K): 1100 Pa
- vapor pressure p ([2]; supercooled liquid, T = 324.34 K): 57.72 ^d Pa
- vapor pressure p ([2]; supercooled liquid, T = 326.40 K): 66.54 ^d Pa
- vapor pressure p ([2]; supercooled liquid, T = 328.22 K): 75.25 ^d Pa
- vapor pressure p ([2]; supercooled liquid, T = 330.22 K): 85.67 ^d Pa
- vapor pressure p ([2]; supercooled liquid, T = 332.21 K): 97.72 ^d Pa
- vapor pressure p ([2]; supercooled liquid, T = 334.17 K): 110.6 ^d Pa
- vapor pressure p ([2]; supercooled liquid, T = 336.16 K): 125.6 ^d Pa
- vapor pressure p ([2]; supercooled liquid, T = 338.15 K): 141.4 ^d Pa
- vapor pressure p ([2]; supercooled liquid, T = 340.44 K): 163.3 ^d Pa
- vapor pressure p ([2]; supercooled liquid, T = 342.29 K): 184.1 Pa
